Settings: in vivo

Q: With Arsenic acid [As^V] as the substance, how does the “concentration range in urine” value read?
A: 0 to 12.1 ng/mL

Q: And the “median concentration in urine” value?
A: 1.12 µg/L

Q: For Arsenious acid [As^III], which “concentration range in urine” value is on record?
A: 2.13 to 101 ng/mL

Q: What about the “median concentration in urine” value of the same substance?
A: 13.8 µg/L

Q: What about the “share of ΣAs in urine” value of the same substance?
A: 3.8-36.9%

From US20250110108A1 (priority 2022, published 2025)
